Source: US9163018B2, “Method of treatment of age-related macular degeneration (AMD)” (Prana Biotechnology Limited, priority 2006, dated 2015)

Columns and labels:
Aβ 1-42 = target: T1, Aβ 1-42 (Homo sapiens, UniProt P05067); test: Fluorometric H2O2 assay (inhibition of Abeta H2O2 production); format: biochemical; conditions: concentration required to inhibit 50% of Abeta H2O2 production; read-out: H2O2 IC50
T1 construct: The reaction solutions contained Aβ 1-42 at concentrations
How it was run: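 Reactions in PBS pH 7.4 at 37 C for 60 min, containing Aβ, copper and test compound. H2O2 output read as fluorescence of HRP-coupled deacetylated DCF. Fluorescence converted to H2O2 concentration via H2O2 standards.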

[1] = test system: M17 human neuroblastoma cells; test: Cytotoxicity, M17 human neuroblastoma cells; format: cell-based
Protocol: Assay 3. MTS Assay for Cell Viability
Cell viability is determined using the MTS assay. Culture medium is replaced with fresh neurobasal medium plus B27 supplements minus antioxidants. 1/10th volume MTS solution (Cell Titre 96 Aqueous One, Promega Corporation) and incubated at 37° C., 2 hrs. 200 microliter aliquots are measured with a spectrophotometer at 560 nm.

Aβ deposits = conditions: daily oral gavage 30 mg/kg, 9 weeks, 13-14 months old transgenic mice
[2] = test system: primary cortical neuronal cultured cells; test: Test compound cytotoxicity, MTS assay, primary cortical neuronal cultures; format: cell-based, mouse
How it was run: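 Primary cortical neurons were cultured five days in Neurobasal/B27, then exposed on day six to compounds (from 2.5 mM DMSO stocks) in medium minus antioxidants, in triplicate for 4 days at 37° C. Viability was measured by MTS, 2 h at 37° C, absorbance at 560 nm.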

[3] = test system: dityrosine oligomerization; test: CuTy: inhibition of dityrosine oligomerization; format: biochemical; conditions: referenced to in-house standard (set as 100% inhibition)
[4] = test system: Abeta in extract of post-mortem human AD brain tissue; test: BAS: human brain amyloid solubilization assay; format: biochemical; conditions: max effect across the concentration range, referenced to baseline PBS
How it was run: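 Plaque-bearing post-mortem AD cortex homogenised in ice-cold PBS pH 7.4; soluble Aβ in 100,000×g supernatant, insoluble Aβ from resuspended pellet. Fractions run on Tris-Tricine SDS-PAGE, immunoblotted with W02, densitometry against synthetic Aβ40 standards.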

T1 sequence (P05067 672-713 limits assumed): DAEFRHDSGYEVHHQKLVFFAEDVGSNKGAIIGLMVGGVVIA

Question: Which results are given for CN(C)Cc1ccc2c(Cl)cc(Cl)c(O)c2n1.Cl [PB 1033]?
Answer: IC50 (Aβ 1-42): 350 nM; Cytotox (% viable) M17 cells at 1 μM ([1]; 1 μM test compound): 94%; Cytotox (% viable) M17 cells at 10 μM ([1]; 10 μM test compound): 54.3%; Tg Mice % difference from control in Amyloid plaque abundance (Aβ deposits): −42%; Tg Mice % difference from control in insoluble brain amyloid burden (Aβ deposits): −29%; Tg Mice % difference from control in soluble brain amyloid burden (Aβ deposits): −37%; Cytotox (% viable) Neuronal cells at 1 μM ([2]; 1 μM test compound): 84%; Cytotox (% viable) Neuronal cells at 10 μM ([2]; 10 μM test compound): 72%; CuTy % inhibition of dityrosine oligomerization [3]: 100%; BAS max effect [4]: 470%
